{"source": "patent US20180172683A1", "about": "“METHODS FOR ANALYZING THE INTERACTION BETWEEN A TARGET PROTEIN AND A LIGAND” (UNIVERSITY OF SOUTHERN CALIFORNIA, priority 2015, published 2018)", "key": {"Bcl-xL [1]": {"molecular_target": "T1, Bcl-xL (Homo sapiens, UniProt Q07817)", "T1 construct": "The gene for the first 209 amino acids of Bcl-xL; made in house; host or cells: E. coli BL21(DE3), pET24a vector", "T1 sequence (Q07817 1-209 limits assumed)": "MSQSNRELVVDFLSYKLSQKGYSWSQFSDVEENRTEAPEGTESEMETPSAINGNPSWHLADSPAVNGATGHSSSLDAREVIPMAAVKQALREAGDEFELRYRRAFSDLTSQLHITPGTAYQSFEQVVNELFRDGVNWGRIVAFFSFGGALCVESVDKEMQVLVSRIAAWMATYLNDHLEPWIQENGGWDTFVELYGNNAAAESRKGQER", "experiment": "High-throughput sequencing kinetic (HTSK) on- and off-rates of mRNA-peptide fusions", "assay_type": "binding", "method": "Preparing the pools of fusion ligands. The DNAs for the final enriched pools from the extension and the doped selection against Bcl-xL were generated. The DNA pools were PCR amplified using Taq polymerase and in vitro transcribed into mRNA using T7 RNA polymerase (Liu et al., Methods Enzymol. 318, 268-293 (2000)). After transcription, the mRNA was urea-PAGE purified and resuspended in deionized water to a final concentration of 30 μM. The mRNA was then ligated to fluorescein-F30P (phosphate-dA21-[dT-fluor]-[C9]3-dAdCdCP; where [dT-fluor] is fluorescein dT (Glen Research), [C9] is spacer 9 (Glen Research), and P is puromycin (Glen Research); synthesized at the Keck Oligo Facility at Yale) using T4 DNA ligase (Takahashi et al., Methods Mol. Biol. 535, 293-314 (2009)). The ligation was performed using a splint complementary to the 3′ end of the RNA and the 5′ end of the DNA-linker. The ligated mRNA was urea-PAGE purified and resuspended in deionized water to final concentration of 30 μM. The samples were in vitro translated in the translation solution-150 mM KOAc, 750 μM MgCl2, 2 μM mRNA, in 1× translation mix (20 mM Hepes-KOH pH 7.6, 100 mM creatine phosphate, 2 mM DTT, and 312.5 μM of each amino acid) and 60% (v/v) rabbit reticulocyte lysate. To prepare radiolabeled peptides or proteins, non-labeled methionine was substituted with ^35S-labeled methionine (Perkin Elmer; 20 μCi for each 25 μL of translation). The translation reactions were incubated at 30° C. for one hour. To form mRNA-protein fusions, KCl and MgCl2 were added to the reaction to final concentrations of 250 mM and 30 mM respectively after translation, and the samples were frozen at −20° C.\nTo purify the fusion molecules, 100 μL of dT cellulose (25% (v/v) slurry, GE Healthcare) in isolation buffer (100 mM Tris-HCl pH 8.0, 1 M NaCl, 0.2% (v/v) Triton X-100) was added and incubated for 1 hour. The beads were washed five times with 700 μL of isolation buffer, and the fusions were eluted with 3×80 μL of 65° C. water and desalted through Centrisep columns (Princeton Separations). The desalted fusions were adjusted to 1×RT buffer (50 mM Tris-HCl pH 8.3, 75 mM KCl, 3 mM MgCl2, […], […],) and the sample was heated to 65° C. for 5 minutes and cooled on ice to anneal the 3′ primer. After cooling, […] of Superscript II enzyme was added and the reaction incubated at 42° C. for one hour. […]\nOn- and off-rate experiments. […] The radiolabeled samples were washed 3×, and the beads were counted via a scintillation counter.\nTo obtain the HTSK off-rates, after the kinetic on-rate experiment, the remaining beads were washed 5× with selection buffer. […] The radiolabeled samples were washed and counted via a scintillation counter. […]"}, "Bcl-xL [2]": {"molecular_target": "T1, Bcl-xL", "experiment": "Radiolabeled off-rate assay on immobilized Bcl-xL", "assay_type": "binding", "description": "Radiolabeled Off-Rate Assay. The DNA sequences coding for the peptides were ordered from Integrated DNA Technologies (IDT). Each DNA construct contained a T7 RNA Polymerase promoter, and a 5′ deletion mutant of the Tobacco Mosaic Virus (ΔTMV). The C-terminal portion of the peptides were elongated with a flexible serine-glycine linker (six amino acids long) and an HA tag. After gel purification using urea-PAGE, the DNA sequences were PCR amplified using Taq polymerase and in vitro transcribed into mRNA using T7 RNA polymerase. After transcription, the mRNA was urea-PAGE purified and resuspended in deionized water to a final concentration of 30 μM.\nThe samples were in vitro translated at 30° C. for 1 hour in the translation solution—150 mM KOAc, 750 μM MgCl2, 2 μM mRNA, 1× translation mix (20 mM Hepes-KOH pH 7.6, 100 mM creatine phosphate, 2 mM DTT, and 312.5 μM of each amino acid excluding methionine), ^35S-labeled methionine (Perkin Elmer; 20 μCi for each 25 μL of translation), and 60% (v/v) rabbit reticulocyte lysate. Radiolabeled peptides were purified using magnetic HA beads (Life Technologies) and eluted with 100 μL, 50 mM NaOH, then immediately neutralized with 20 μL of 1 M Tris-HCl, pH 8.0.\nThe radiolabeled peptides were allowed to bind to 30 pmol immobilized Bcl-xL for 1 hour in sample buffer (1×PBS, 1% (w/v) BSA, 0.1% (v/v) Tween 20, 10 μM biotin). The beads were magnetically separated, and washed 5× with sample buffer. The beads were resuspended in 1 mL of sample buffer containing 3 μM non-biotinylated Bcl-xL (˜100× molar excess relative to immobilized biotinylated Bcl-xL). At various time points, 100 μL of slurry was removed and the beads were magnetically separated and washed. The percent remaining at each time point was determined by dividing the counts per minute (cpm) on beads by total cpm (beads+washes). The peptide off-rate was determined by an exponential fit of the Percent counts on beads vs. Time (s).\nThe peptide ligands were made using a C-terminal HA tag, and affinity purified."}, "streptavidin": {"molecular_target": "streptavidin (Streptomyces avidinii, UniProt P22629)", "sequence (P22629 25-183, species assumed)": "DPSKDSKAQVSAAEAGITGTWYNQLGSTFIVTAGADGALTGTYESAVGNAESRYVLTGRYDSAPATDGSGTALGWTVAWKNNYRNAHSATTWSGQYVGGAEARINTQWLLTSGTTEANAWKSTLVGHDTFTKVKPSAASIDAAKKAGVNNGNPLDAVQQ", "settings": "literature reference value, Piran et al. 1990; cited from earlier work"}, "Bcl-xL [3]": {"molecular_target": "T1, Bcl-xL", "experiment": "Equilibrium immunoassays (ELISA and AMMP data combined), Kd of ligands for Bcl-xL", "assay_type": "binding", "method": "Sample Preparation. A set of serially diluted Bcl-xL standards, at 2× the desired concentration, were made in sample buffer. For each ligand to be tested (such as peptide ligands), a set of dilutions at 2× the desired concentration was also prepared. The Bcl-xL samples were either mixed 1:1 with sample buffer (standards) or ligands (samples), and allowed to incubate at room temperature for 6 days. After the incubation, the standards and samples were analyzed using ELISA or the ViBE BioAnalyzer (FIG. 1).\nELISA Assays. ELISA plates were incubated overnight at 4° C. with 1.5 nmol of streptavidin (for D1 or Bcl-xL capture ligands) or 54H6 mAb in 1×PBS. Plates were washed 3× with wash buffer (1×PBS+0.1% (v/v) Tween-20) and blocked with 1×PBS+5% (w/v) BSA for two hours. For the D1 or Bcl-xL capture ligands, 100 μL of a 30 nM solution of the reagents was added to wells and incubated for 1 hour. This step was skipped for the 54H6 mAb capture ligand (already immobilized on the plate). After the capture ligand incubation, 100 μL of sample or standards were added in each well, and incubated for 1 hour at room temperature. Plates were washed, incubated with HRP-conjugated probe antibody (such as anti-HIS tag antibody) in sample buffer for 1 hour, washed, and incubated with TMB substrate (Thermo Scientific). Reactions were stopped after approximately 10 minutes with 2 M sulfuric acid, and the absorbance at 450 nm was measured via a plate reader (Molecular Devices). The ligand of interest, capture ligand, target protein, and probe ligand used in example ELISA assays performed are highlighted in the table below.\nAMMP Assays. For the AMMP assays, 90 μL of each sample or standards was incubated with 30 μL of magnetic beads (12 μg of beads/mL) and fluorescein-labeled antibody (8 nM) in sample buffer for 1 hour. The experiment's run buffer was 1×PBS+1% (v/v) Tween-20+1% (v/v) heat-treated FBS (Invitrogen; FBS was heat treated for 15 minutes at 65° C. and filtered). BioScale Universal Detection Cartridges were used in performing all of the assays. The device was used per the manufacturer's instructions. The ligand of interest, capture ligand, target protein, and probe ligand used in example AMMP assays performed are highlighted in the table below.\nMonovalent and Divalent Analysis. The data for both sets of target concentrations were simultaneously fit for Kd (in the Kd only fit) or Kd and Mo. The data was fitted to the equilibrium model using the lowest absolute deviation method, by varying either only Kd or both Kd and [L]0 simultaneously. The monovalent assay fitting was done by Excel Solver (GRG Non-Lin method) using a set of five initial values. The set of values which provided the lowest error after the fitting were chosen as the final values. For the divalent assays, the fitting was performed by MATLAB's fminsearch function and a set of 10 initial values for Kd1, Kd2, and [L]0. […] For the divalent reverse assay, an extra parameter, Cf, was also determined by fitting (FIG. 7 Reverse Assay).\nEnzymatic Kd Calculation Assay. The Kd values of ligands of interest were determined using a protocol modified from Friguet et al., Journal of immunological methods, 77, 305-319 (1985). The samples were prepared and analyzed by ELISA assay in a similar process as described above. The OD450 for the standards and their concentration values were fit to a four parameter logistic curve (standard curve). The concentration of the free Bcl-xL in solution (responsible for the signal) for each sample was calculated using the standard curve, and converted into percent of Bcl-xL bound by ligand in solution."}}, "note": "Peptide text beside a SMILES is read from it. * marks the point of attachment. Biotin = O=C1N[C@H]2[C@H](CS[C@H]2CCCCC(=O)*)N1", "data": [{"molecule": "MIDTNVILNYKKAADHFSITMGSK [D79]", "values": [{"measurement": "Kd", "setting": "Bcl-xL [1]; from HTSK on- and off-rates", "result": 0.0024, "unit": "nM"}, {"measurement": "HTSK koff", "setting": "Bcl-xL [1]; mRNA-peptide fusions, next-generation sequencing", "result": "3.3e-07", "unit": "s⁻¹"}, {"measurement": "Peptide koff", "setting": "Bcl-xL [2]; in vitro translated radiolabeled peptides with C-terminal HA tag", "result": "5.9e-07", "unit": "s⁻¹"}, {"measurement": "koff value", "setting": "Bcl-xL [2]; radiolabeled peptide, unit not given", "result": "5.9×10^−7"}]}, {"molecule": "O=C(O)CCCC[C@@H]1SC[C@@H]2NC(=O)N[C@@H]21", "note": "[biotin]", "values": [{"measurement": "slowest reported off-rate of biotin and streptavidin", "setting": "streptavidin", "result": "2.4×10^−6"}]}, {"molecule": "CC[C@H](C)[C@H](NC(=O)[C@@H](NC(=O)[C@@H](NC(=O)[C@@H](NC(=O)[C@H](CCC(=O)O)NC(=O)[C@@H](NC(=O)[C@@H](N)CCSC)[C@@H](C)CC)[C@@H](C)O)[C@@H](C)CC)[C@@H](C)O)C(=O)N[C@@H](Cc1ccc(O)cc1)C(=O)N[C@@H](CCCCN)C(=O)N[C@@H](Cc1ccc(O)cc1)C(=O)N[C@@H](CCCCN)C(=O)N[C@@H](CCCCN)C(=O)N[C@@H](C)C(=O)N[C@@H](C)C(=O)N[C@@H](CC(=O)O)C(=O)N[C@@H](Cc1c[nH]cn1)C(=O)N[C@@H](Cc1ccccc1)C(=O)N[C@@H](CO)C(=O)N[C@@H](CCSC)C(=O)N[C@@H](CO)C(=O)N[C@@H](CCSC)C(=O)NCC(=O)N[C@@H](CO)C(=O)N[C@@H](CCCCNC(=O)CCCC[C@@H]1SC[C@@H]2NC(=O)N[C@@H]21)C(N)=O", "note": "[E2] (H-MIETITIYKYKKAADHFSMSMGSK(Biotin)-NH2)", "values": [{"measurement": "kon", "setting": "Bcl-xL [3]", "result": 53000, "unit": "M⁻¹ s⁻¹"}, {"measurement": "Kd", "setting": "Bcl-xL [3]; Kd, equilibrium ELISA/AMMP assays (Table 1 values)", "result": 0.3, "unit": "nM"}, {"measurement": "Ratio of Fit [L]0 to Known [L]0", "setting": "Bcl-xL [3]; simultaneous fit of Kd and [L]0, mean ± standard error", "result": "96% ± 40%"}, {"measurement": "koff", "setting": "Bcl-xL [2]; radiolabeled peptide-mRNA fusions bound to immobilized Bcl-xL, read-out: koff", "result": "1.6e-05", "unit": "s⁻¹"}]}]}
